Reference: patent US8664289B2, “Dye and coloring photosensitive composition” (Adeka Corporation, priority 2010, dated 2014)

How the values were obtained:
Format in all cases: physicochemical
[1] = Evaluation of heat resistance by TG-DTA; details: temperature at 10% weight loss
Description: Compounds Nos. 1 to 7, 16, 26, 43, 52 to 62, 65, 66, 69, 70 and 94 to 102 and Comparative Compounds Nos. 1 and 2 obtained above were analyzed by TG-DTA, and the melting points and temperatures at 10% weight loss were measured. The results are shown in [Table 6].

Solubility in PGMEA = details: concentration when PGMEA was added dropwise to 0.1 g of the compound under stirring and was dissolved completely
Description: (§1) That the obtained solid was an intended product was confirmed by ^1H-NMR and IR. Furthermore, the solubility of the obtained compound was measured. The solubility was a concentration when PGMEA was added dropwise to 0.1 g of the compound under stirring and was dissolved completely. The results thereof are shown in [Table 1] to [Table 4].
as §1, with “added” for “added dropwise”, “while” for “under”, “4]” for “4].”

[2] = Evaluation of absorption wavelength property in CHCl3 solution; set-up: ε: unit not given here; details: for ε: molar absorption coefficient
Description: The absorption wavelength properties of Compounds Nos. 1 to 7, 16, 26, 43, 52 to 62, 65, 66, 69, 70 and 94 to 102 and Comparative Compounds Nos. 1 and 2 obtained above were each evaluated in a CHCl3 solution. The results are shown in [Table 5].

[3] = Heat resistance of exposed coating film of coloring alkali-developable photosensitive composition; details: for Relative intensity After exposure: coating film after exposure (150 mJ/cm^2), before heating; for λmax: coating film of composition containing the compound, on glass; for Relative intensity 230° C., 30 min: exposed coating film after 230° C.
Description: 30.33 g of ACA Z250 (manufactured by Daicel Cytec Company Ltd.) and 11.04 g of ARONIX M-450 (manufactured by Toagosei Co., Ltd.) as the component (B), 1.93 g of IRGACURE 907 (manufactured by BASF) as the component (C), 36.60 g of PGMEA and 20.08 g of cyclohexanone as the component (E), as well as 0.01 g of FZ2122 (manufactured by Dow Corning Toray Co., Ltd.) as other component were mixed and stirred until insoluble components were diminished to give Alkali-developable photosensitive composition No. 1.
1.90 g of dimethylacetamide was added to 0.10 g of Compound No. 1 obtained above as the component (A) and dissolved under stirring.
5.0 g of Alkali-developable photosensitive composition No. 1 obtained in Step 1 and 1.0 g of Dye liquid No. 1 obtained in Step 2 were mixed and stirred to homogeneous to give Coloring alkali-developable photosensitive composition No. 1 of the present invention.
Coloring alkali-developable photosensitive compositions Nos. 2 to 20 were obtained in a similar manner to that in Example 2-1, except that Compound No. 1 as the component (A) in Step 2 of Example 2-1 was changed to Compound No. 2, 3, 5, 6, 16, 53, 56, 57, 59, 60, 65, 66, 94 or 96 to 101 obtained above.
Comparative coloring alkali-developable photosensitive compositions Nos. 1 and 2 were obtained in a similar manner to that in Example 2-1, except that Compound No. 1 as the component (A) in Step 2 of Example 2-1 was changed to Comparative Compound No. 1 or 2.
The coloring alkali-developable photosensitive compositions obtained in Example 2 were each applied to a glass basal plate under a condition of 410 rpm×7 sec and dried (90° C., 90 sec) on a hot plate. The obtained coating film was exposed (150 mJ/cm^2) by using an ultrahigh pressure mercury lamp. The heat resistance of the exposed coating film was investigated under conditions of 180° C.×60 min and 230° C.×30 min. The results are shown in [Table 7].
Using the coloring alkali-developable photosensitive compositions obtained in Examples 2-2 to 2-20 and Comparative Examples 2-1 and 2-2, heat resistance was investigated in a similar manner to that in Evaluation Example 3. The results are shown in [Table 7].

10% weight loss [1] [°C] | Solubility (PGMEA) (Solubility in PGMEA) | λmax [2] [nm] | ε [2] | Relative intensity After exposure [3] | λmax [3] [nm] | Relative intensity 230° C., 30 min [3] | Structure (SMILES)
320 | 1.0 or less wt % | 431 | 130000 | 100 | 433 | 99.6 | CCN(CC)c1ccc(/C=C(\C#N)C(=O)OCC(C)(COC(=O)/C(C#N)=C/c2ccc(N(C)CCO)cc2)COC(=O)/C(C#N)=C/c2ccc(N(C)CCO)cc2)cc1 [Compound No. 99]
354 | 5.3 wt % | 435 | 65300 | 100 | 430 | 99.3 | N#C/C(=C\c1ccc(N(c2ccccc2)c2ccccc2)cc1)C(=O)OCCCCCCCOC(=O)/C(C#N)=C/c1ccc(N(c2ccccc2)c2ccccc2)cc1 [Compound No. 65]
